Several values for one entry are separate records, joined by “and”; a condition that tells them apart may be missing. Equal entries are not always repeated.
Experiments:
Rat PK = type: in vivo
Protocol: PK parameters were determined by non-compartmental analysis. Intravenous bolus studies in mouse, rat and dog were performed at 1, 1 and 0.1 mg per kg respectively (Extended Data Table 1).

SW48 xenografts = experiment: SW48 cell-derived xenograft efficacy, HRO761 orally once daily; type: in vivo, mouse
Protocol: All animal studies were conducted in accordance with ethics and procedures covered by permit BS-2275 and BS-1975 issued by the Kantonales Veterinäramt Basel-Stadt and in strict adherence to guidelines of the Eidgenössisches Tierschutzgesetz and the Eidgenössische Tierschutzverordnung, Switzerland. All animal studies were approved by the internal ethics committee. All animals had access to food and water ad libitum and were identified with transponders. They were housed in a specific-pathogen-free facility in IVC racks under a 12 h–12 h light–dark cycle. To establish cell-line-derived xenograft models, 6–7-week-old female athymic nude (Crl:NU(NCr)-Foxn1^nu) or SCID-BEIGE (CB17.Cg-PrkdcscidLystbg-J/Crl) mice from Charles River were engrafted subcutaneously with 5 million tumour cells in HBSS (H6648, Sigma-Aldrich). For SNU-407, Lovo, IM95, RL95.2, Ishikawa and IGROV-1, the cells were concentrated in 50% Matrigel (354234, Corning). Patient-derived xenografts were induced and expanded by transplantation as previously described. […] For the efficacy experiment, mice were randomized into groups (n = 5–6) for a mean tumour size of 100–150 mm^3. […] Blood samples were collected on day 7 and 91. […] Tumour responses are reported with the measures of tumour volumes from the treatment start. […] Animals were randomized (n = 3) and tumour samples were collected at 0, 1, 4, 8 and 24 h on the first day and then collected 4 h after the last treatment on day 3, 8, 10, 14 (including a 24 h timepoint), 17 and 21. Tumours were excised, weighed, either frozen in liquid nitrogen and cryogenic dry pulverized with the CryoPrep system (model CP-02, Covaris) or processed to FFPE after fixation. […] On day 12, blood samples were collected for PK analysis. On the last day (3 h after the last treatment), tumours were excised, weighed, frozen in liquid nitrogen and cryogenic dry pulverized for PD analysis.

CCc1c(N2CCN(C(=O)c3ncnc(C)c3O)CC2)c(=O)n2nc(C3=CCOCC3)nc2n1CC(=O)Nc1ccc(C(F)(F)F)cc1Cl [HRO761]
Rat PK, oral bioavailability (F) (Rat PK): 74 % F
max Reg (%) or max T/C (%) (SW48 xenografts; 10 mg/kg): 94.00%
tumour response (SW48 xenografts; 20 mg per kg, once daily oral): tumour stasis
max Reg (%) or max T/C (%) (SW48 xenografts; 20 mg/kg): 6.00%
max Reg (%) or max T/C (%) (SW48 xenografts; 30 mg/kg): -69.00%
max Reg (%) or max T/C (%) (SW48 xenografts; 40 mg/kg): -75.00%
max Reg (%) or max T/C (%) (SW48 xenografts; 60 mg/kg): -85.00%
max Reg (%) or max T/C (%) (SW48 xenografts; 120 mg/kg): -89.00%
Mean TVol (SW48 xenografts; HRO761 20mg/kg, day 0 post 1st dose): 148.57 mm3
Mean TVol (SW48 xenografts; HRO761 20mg/kg, day 3 post 1st dose): 172.19 mm3
Mean TVol (SW48 xenografts; HRO761 20mg/kg, day 7 post 1st dose): 214.06 mm3
Mean TVol (SW48 xenografts; HRO761 20mg/kg, day 10 post 1st dose): 199.01 mm3
Mean TVol (SW48 xenografts; HRO761 20mg/kg, day 14 post 1st dose): 193.54 mm3
TVol, individual mouse (SW48 xenografts; HRO761 20mg/kg, day 14 post 1st dose, 20 mg/kg): 183.48 mm3 and 119.53 mm3 and 120.69 mm3 and 296.11 mm3 and 247.89 mm3
Mean TVol (SW48 xenografts; HRO761 20mg/kg, day 17 post 1st dose): 171.07 mm3
TVol, individual mouse (SW48 xenografts; HRO761 20mg/kg, day 17 post 1st dose, 20 mg/kg): 183.94 mm3 and 118.26 mm3 and 128.1 mm3 and 182.42 mm3 and 242.62 mm3
Mean TVol (SW48 xenografts; HRO761 20mg/kg, day 21 post 1st dose): 210.51 mm3
TVol, individual mouse (SW48 xenografts; HRO761 20mg/kg, day 21 post 1st dose, 20 mg/kg): 237.44 mm3 and 188.88 mm3 and 167.52 mm3 and 218.78 mm3 and 239.95 mm3
Mean TVol (SW48 xenografts; HRO761 20mg/kg, day 24 post 1st dose): 217.13 mm3
TVol, individual mouse (SW48 xenografts; HRO761 20mg/kg, day 24 post 1st dose, 20 mg/kg): 213.9 mm3 and 149.74 mm3 and 186.94 mm3 and 199.91 mm3 and 335.14 mm3
Mean TVol (SW48 xenografts; HRO761 20mg/kg, day 28 post 1st dose): 270.81 mm3
TVol, individual mouse (SW48 xenografts; HRO761 20mg/kg, day 28 post 1st dose, 20 mg/kg): 244.97 mm3 and 189.99 mm3 and 254.46 mm3 and 269.33 mm3 and 395.3 mm3
Mean TVol (SW48 xenografts; HRO761 20mg/kg, day 31 post 1st dose): 317.23 mm3
Mean TVol (SW48 xenografts; HRO761 20mg/kg, day 35 post 1st dose): 380.57 mm3
Mean TVol (SW48 xenografts; HRO761 20mg/kg, day 38 post 1st dose): 438.75 mm3
Mean TVol (SW48 xenografts; HRO761 20mg/kg, day 42 post 1st dose): 626.99 mm3
Mean TVol (SW48 xenografts; HRO761 20mg/kg, day 45 post 1st dose): 658.99 mm3
Mean TVol (SW48 xenografts; HRO761 40mg/kg, day 0 post 1st dose): 148.59 mm3
Mean TVol (SW48 xenografts; HRO761 40mg/kg, day 3 post 1st dose): 162.25 mm3
Mean TVol (SW48 xenografts; HRO761 40mg/kg, day 7 post 1st dose): 181.10 mm3
Mean TVol (SW48 xenografts; HRO761 40mg/kg, day 10 post 1st dose): 146.66 mm3
Mean TVol (SW48 xenografts; HRO761 40mg/kg, day 14 post 1st dose): 133.58 mm3
TVol, individual mouse (SW48 xenografts; HRO761 40mg/kg, day 14 post 1st dose, 40 mg/kg): 137.47 mm3 and 92.79 mm3 and 146.32 mm3 and 135.46 mm3 and 155.86 mm3
Mean TVol (SW48 xenografts; HRO761 40mg/kg, day 17 post 1st dose): 95.84 mm3
TVol, individual mouse (SW48 xenografts; HRO761 40mg/kg, day 17 post 1st dose, 40 mg/kg): 84.05 mm3 and 68.24 mm3 and 117.68 mm3 and 91.67 mm3 and 117.57 mm3
Mean TVol (SW48 xenografts; HRO761 40mg/kg, day 21 post 1st dose): 84.88 mm3
TVol, individual mouse (SW48 xenografts; HRO761 40mg/kg, day 21 post 1st dose, 40 mg/kg): 65.27 mm3 and 62.26 mm3 and 114.98 mm3 and 87.79 mm3 and 94.1 mm3
Mean TVol (SW48 xenografts; HRO761 40mg/kg, day 24 post 1st dose): 52.61 mm3
TVol, individual mouse (SW48 xenografts; HRO761 40mg/kg, day 24 post 1st dose, 40 mg/kg): 40.05 mm3 and 34.46 mm3 and 63.81 mm3 and 55.22 mm3 and 69.51 mm3
Mean TVol (SW48 xenografts; HRO761 40mg/kg, day 28 post 1st dose): 44.44 mm3
TVol, individual mouse (SW48 xenografts; HRO761 40mg/kg, day 28 post 1st dose, 40 mg/kg): 41.72 mm3 and 27.23 mm3 and 46.41 mm3 and 45.86 mm3 and 60.97 mm3
Mean TVol (SW48 xenografts; HRO761 40mg/kg, day 31 post 1st dose): 37.24 mm3
Mean TVol (SW48 xenografts; HRO761 40mg/kg, day 35 post 1st dose): 32.88 mm3
Mean TVol (SW48 xenografts; HRO761 40mg/kg, day 38 post 1st dose): 33.30 mm3
Mean TVol (SW48 xenografts; HRO761 40mg/kg, day 42 post 1st dose): 36.90 mm3
Mean TVol (SW48 xenografts; HRO761 40mg/kg, day 45 post 1st dose): 34.79 mm3
Mean TVol (SW48 xenografts; HRO761 40mg/kg, day 49 post 1st dose): 37.27 mm3
Mean TVol (SW48 xenografts; HRO761 40mg/kg, day 52 post 1st dose): 35.78 mm3
Mean TVol (SW48 xenografts; HRO761 40mg/kg, day 56 post 1st dose): 46.42 mm3
Mean TVol (SW48 xenografts; HRO761 40mg/kg, day 59 post 1st dose): 55.91 mm3
Mean TVol (SW48 xenografts; HRO761 40mg/kg, day 63 post 1st dose): 77.49 mm3
Mean TVol (SW48 xenografts; HRO761 40mg/kg, day 66 post 1st dose): 84.81 mm3
Mean TVol (SW48 xenografts; HRO761 40mg/kg, day 70 post 1st dose): 105.06 mm3
Mean TVol (SW48 xenografts; HRO761 40mg/kg, day 73 post 1st dose): 118.43 mm3
Mean TVol (SW48 xenografts; HRO761 40mg/kg, day 76 post 1st dose): 139.13 mm3
Mean TVol (SW48 xenografts; HRO761 40mg/kg, day 79 post 1st dose): 184.71 mm3
Mean TVol (SW48 xenografts; HRO761 40mg/kg, day 83 post 1st dose): 215.37 mm3
Mean TVol (SW48 xenografts; HRO761 40mg/kg, day 86 post 1st dose): 261.40 mm3
Mean TVol (SW48 xenografts; HRO761 40mg/kg, day 90 post 1st dose): 329.03 mm3
Mean TVol (SW48 xenografts; HRO761 40mg/kg, day 92 post 1st dose): 334.15 mm3
Mean TVol (SW48 xenografts; HRO761 60mg/kg, day 0 post 1st dose): 148.59 mm3
Mean TVol (SW48 xenografts; HRO761 60mg/kg, day 3 post 1st dose): 184.38 mm3
Mean TVol (SW48 xenografts; HRO761 60mg/kg, day 7 post 1st dose): 168.35 mm3
Mean TVol (SW48 xenografts; HRO761 60mg/kg, day 10 post 1st dose): 139.22 mm3
Mean TVol (SW48 xenografts; HRO761 60mg/kg, day 14 post 1st dose): 143.74 mm3
